Laboratory results published in patent US4889941A, “Synthetic flavonoids as inhibitors of leukotrienes and 5-lipoxygenase” (Fisons Corporation, priority 1987, dated 1989).
Counter-ions that a name gives are not always drawn.

Assays:
leukotriene C4 (LTC4) = experiment: Inhibition of LTC4-induced guinea pig ilial contractions; assay type: cell-based; conditions: Cavia porcellus, LTC4 6 nanomolar, read-out: percent inhibition of LTC4-induced contraction
Procedure: Test for Inhibition of LTC4 -Induced Guinea Pig Ilial Contractions
The evaluation of potential anti-allergic compounds for antagonism of the in vitro effects of leukotriene C4 (LTC4) is conducted according to the following procedure. Guinea pig ilial strips are obtained from recently killed animals and hung in isolated tissue baths comprising a balanced solution of salts such as Krebs' solution. After allowing for one hour equilibration of the tissue in the bath, the gram tension (G.T.) on one tissue is arbitrarily set at one. LTC4 (6 nanomolar concentration) is then added to the tissue bath. This induces a long, sustained contraction of the tissue that is measured on the strip chart recorder (the G.T. increases to about 2). After the LTC4 -induced contraction has plateaued and remains stable, increasing amounts of the test compound are added to the bath. If the compound is effective, a decrease in the G.T. (Δ G.T.) from the LTC4 -induced value is seen (e.g., from 2 to 1.5). The percent inhibition at each concentration is calculated according to the formula: [formula] Four replicate tissues are run.

[1] = tested on: edema in a rat anaphylaxis test; experiment: Rat anaphylaxis test (paw edema after bovine serum albumin challenge); assay type: in vivo; conditions: for activity in the rat anaphylaxis test: administered as a suspension
Procedure: Groups of 15-20 rats are intraperitoneally sensitized with 500 μg of bovine serum albumin-absorbed alum admixed with 2×10^10 killed Bordetella pertussis vaccine organisms. Fourteen days later, the paw volume is measured using a mercury plethysmometer. Immediately thereafter, the test compound suspended in about 1 ml of 1% Clearjel ("Instant Clearjel", a food grade pregelatinized starch from National Starch and Chemical Corporation, New York, N.Y.) at 100 mg/kg is administered ip and, one hour later, the right hind paw is injected subcutaneously with 100 μg of bovine serum albumin dissolved in 0.1 ml of saline. (In controls, no test compound is suspended in the Clearjel.) The paw volume is remeasured 90 minutes post antigenic challenge to determine the volume increase (Δ V) since the first measurement. The percent inhibition of edema is [formula] The effect of theophylline (90 mg/kg, po) is tested as a positive control.

[2] = Solubility in the balanced salts solution of the tissue bath; assay type: physicochemical; conditions: balanced salts solution of the LTC4 ilial assay
5-lipoxygenase = biological target: T1, 5-lipoxygenase (Homo sapiens, UniProt P09917); experiment: Inhibition of 5-lipoxygenase (5-HETE formation from arachidonic acid, HPLC); assay type: biochemical; conditions: arachidonic acid 1 mg/ml, pH 7.4, 6 minutes at 30° C.
T1 sequence (P09917 1-674): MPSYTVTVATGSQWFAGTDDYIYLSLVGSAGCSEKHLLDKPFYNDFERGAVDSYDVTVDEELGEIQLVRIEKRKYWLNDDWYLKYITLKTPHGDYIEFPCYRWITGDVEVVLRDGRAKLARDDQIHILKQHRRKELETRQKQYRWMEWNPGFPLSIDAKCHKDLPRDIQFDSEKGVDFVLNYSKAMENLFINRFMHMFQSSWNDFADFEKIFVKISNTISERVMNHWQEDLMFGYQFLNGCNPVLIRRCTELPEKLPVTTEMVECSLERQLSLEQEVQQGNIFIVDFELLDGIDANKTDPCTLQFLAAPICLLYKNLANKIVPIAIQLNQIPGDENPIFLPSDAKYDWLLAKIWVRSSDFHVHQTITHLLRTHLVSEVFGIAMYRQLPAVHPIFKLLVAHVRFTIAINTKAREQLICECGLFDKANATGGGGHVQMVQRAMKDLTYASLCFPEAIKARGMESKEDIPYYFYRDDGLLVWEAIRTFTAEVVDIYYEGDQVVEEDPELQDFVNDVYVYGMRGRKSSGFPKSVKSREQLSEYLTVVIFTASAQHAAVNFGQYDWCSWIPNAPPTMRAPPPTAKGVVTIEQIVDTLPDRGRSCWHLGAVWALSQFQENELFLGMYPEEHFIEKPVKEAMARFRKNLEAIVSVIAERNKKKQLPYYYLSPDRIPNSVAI
Procedure: Test for Inhibition of 5-Lipoxygenase
This test is based on the procedure of Arai et al., J. Med. Chem., Vol. 26, 72 (1983).
Arachidonic acid in the presence of the enzyme 5-lipoxygenase is converted to 5-hydroxy-eicosatetraenoic acid (5-HETE) through a 2-step process. To assess the activity of a test compound on 5-lipoxygenase activity, a specific concentration of the test compound is added to 1 mg/ml of arachidonic acid in the presence of the appropriate amount of 5-lipoxygenase in a solution of potassium phosphate buffer containing 1 mM CaCl2 at pH 7.4. The reaction is carried out for 6 minutes at 30° C. in a total volume of 500 μl. The reaction is stopped by addition of lM citric acid. The 5-HETE is extracted and quantitated using high performance liquid chromatography. The percent activity is calculated as follows: [formula]

COc1ccc(CCNCC(O)COc2ccc3c(=O)cc(-c4ccccc4)oc3c2)cc1OC (stereo not shown) [Example 1, 7-[3-[(3,4-dimethoxyphenethyl)amino]-2-hydroxypropoxy]flavone Maleate]
inhibition at 10 µM (leukotriene C4 (LTC4); final tissue bath concentration 1×10^-5 M): 94%
inhibition at 1 µM (leukotriene C4 (LTC4); final tissue bath concentration 1×10^-6 M): 52.3%
inhibition at 5 µM (leukotriene C4 (LTC4); final tissue bath concentration 5×10^-6 M): 89.8%

O=c1cc(-c2ccccc2)oc2cc(OCC(O)CNCC(O)COc3ccccc3)ccc12 (stereo not shown) [Example 11, 7-[3-[3-phenoxy-2-(hydroxypropyl)amino]-2-hydroxypropoxy]flavone Hydrochloride]
activity in the rat anaphylaxis test [1]: active
solubility in the balanced salts solution [2]: insoluble

O=c1cc(-c2ccccc2)oc2cc(OCC(O)CN3CCN(c4ccccc4)CC3)ccc12 (stereo not shown) [Example 12, 7-[3-(N-phenylpiperazinyl)-2-hydroxypropoxy]flavone]
activity in the rat anaphylaxis test [1]: active
solubility in the balanced salts solution [2]: insoluble

Br.O=c1cc(-c2ccccc2)oc2cc(OCC(O)CNCCc3ccc(O)c(O)c3)ccc12 (stereo not shown) [Example 14, 7-[3-[(3,4-Dihydroxyphenethyl)amino]-2-hydroxypropoxy]flavone Hydrobromide]
percent inhibition of edema ([1]; rat, 100 mg/kg ip in 1% Clearjel, paw volume 90 minutes post antigenic challenge): 63%
IC50 (5-lipoxygenase): ~90 nM

O=c1c(-c2ccccc2)c(-c2ccccc2)oc2cc(OCC(O)CNCCc3ccccc3)ccc12 (stereo not shown) [Example 18, 3-Phenyl-7-(3-phenethylamino-2-hydroxypropoxy)flavone]
activity in the rat anaphylaxis test [1]: active
solubility in the balanced salts solution [2]: insoluble

O=c1c(-c2ccccc2)c(-c2ccccc2)oc2cc(OCC(O)CNc3ccccc3)ccc12 (stereo not shown) [Example 19, 3-Phenyl-7-(3-anilino-2-hydroxypropoxy)flavone]
activity in the Rat Anaphylaxis test ([1]; as hydrochloric acid salt): inactive
activity in the Rat Anaphylaxis test ([1]; free base form): active
